pIC50: −log10 of the molar value.
Tested on: 494315-158-R-J1-PDC complex spheroid growth, percent test/control
Test: Anticancer human tumor 494315-158-R-J1-PDC patient-derived soft tissue sarcoma cell line growth inhibition [Asc]
Details: for pIC50: curve of first compound; for viability, T/C: stronger effect = lower value
Protocol: Multicellular complex tumor spheroid response to apoptosis pathway targeting inhibitors Alrizomadlin, Pelcitoclax, and Dasminapant in combination with a variety of drugs and investigational agents in selected tumor cell lines
The MDM2 inhibitor alrizomadlin, the Bcl-2/Bcl-xL inhibitor pelcitoclax, and the IAPs inhibitor dasminapant were evaluated both individually and in combination with standard of care and investigational anticancer small molecules within a complex spheroid model of solid tumors. . Complex spheroids include a stromal component modeled by human endothelial cells (HUVEC) and fibroblasts modeled by human mesenchymal stem cells (MSCs). The concentration ranges selected for each drug and investigational agent were based upon clinically achievable concentrations if the clinical Cmax of the agent was known.
Compounds. The drugs and investigational agents: alrizomadlin (APG-115; NSC831270), pelcitoclax (APG-1252; NSC835773), dasminapant (APG-1387;NSC834197), TAK-243 (NSC785004), copanlisib (NSC809693), olaparib (NSC753686), talazoparib (NSC767125), cobimetinib (NSC 768068), eltanexor (KPT-8602, NSC 794443), abemaciclib (NSC 768073), sotorasib (NSC818433), adagrasib (NSC 831453), MRTX-1133 (NSC 836407), Iadademestat (ORY1001, NSC 806812), and RMC-4630 (NSC839698), were obtained from the NCI Developmental Therapeutics Program Chemical Repository. The FDA-approved anticancer drug set is available from the Developmental Therapeutics Program at https://dtp.cancer.gov/organization/dscb/obtaining/available plates.htm. […] The stock solutions were prepared in dimethyl sulfoxide (DMSO, Sigma-Aldrich, St. Louis, MO, cat. D2650) at 800-fold the tested concentration and stored at -70 degrees C prior to their use. All drugs and investigational agents were tested over a range starting from a high concentration at or near the clinical Cmax and decreasing in half-log increments. If the clinical Cmax for an agent had not been determined, the highest concentration tested was 10 microM.
The patient-derived cancer (PDC) cell lines include five colon adenocarcinomas: 186277-243-T-J2-PDC, 616215-338-R-J1-PDC, 439559-082-T-J2-PDC, 463943-066-T-J2-PDC, and 519858-162-T-J1-PDC; three pancreatic carcinomas: 323965-272-R-J2-PDC, 521955-158-R6-J3-PDC, and 521955-158-R2-J5-PDC; two uterine sarcomas: 327498-152-R-J2-PDC and 993429-296-R-J1-PDC; two rhabdomyosarcomas: 755483-174-R-J1-PDC and 772245-204-R-J1-PDC; two soft tissue sarcomas: 126254-015-R-J1-PDC and 494315-158-R-J1-PDC; two malignant fibrous histiocytomas: 317291-083-R-J1-PDC and 596521-263-R-J1-PDC; two breast carcinomas: 171881-019-R-J1-PDC and 885512-296-R-J2-PDC; and one ovarian carcinoma: 6556581-035-R-J-PDC were obtained from the NCI PDMR, (https://pdmr.cancer.gov). The established cell lines HSSY-2 synovial sarcoma (RRID:CVCL 8719), SYO-1 synovial sarcoma (RRID:CVCL_7146), MPNST malignant peripheral neural sheath tumor were obtained from the Sloan Kettering Institute. The following established cell lines were purchased from the American Type Culture Collection (ATCC, Manassas, VA), Sor the received from the NCI repository:, PANC-1 pancreatic carcinoma (CRL-1469, RRID:CVCL_0480), OVCAR-5 ovarian carcinoma (RRID:CVCL_1628), OVCAR-8 ovarian carcinoma (RRID:CVCL_1629), , MCF-7 breast carcinoma (CRL-12584, RRID:CVCL_0031), MDA-MB-231 breast carcinoma (CRL-12532, RRID:CVCL_0062), NCI-H1876 small cell lung carcinoma (CRL-5902, RRID:CVCL_1503), NCI-H510A small cell lung carcinoma (HTB-184, RRID:CVCL_1565), NCI-H1417 (CRL-5869, RRID:CVCL_1469), and NCI-H196 small cell lung carcinoma (CRL-5823, RRID:CVCL_1509). Dr. Peter Houghton (Greehey Children's Cancer Research Institute, University of Texas Health Science Center, San Antonio, TX) provided Rh-18 rhabdomyosarcoma (RRID:CVCL_1659). Pooled donor human umbilical vein endothelial cells (HUVEC, Lonza, cat. CC-2519) and human mesenchymal stem cells (hMSC, Lonza, cat. PT-2501) were purchased from Lonza (Walkersville, MD).
Cell Culture. […]

[1] = second compound 0.03 µM, first compound 0.00316 µM
[2] = second compound 0.03 µM, first compound 0.01 µM
[3] = second compound 0.03 µM, first compound 0.0316 µM
[4] = second compound 0.03 µM, first compound 0.1 µM
[5] = second compound 0.0949 µM, first compound 0.00316 µM
[6] = second compound 0.0949 µM, first compound 0.01 µM
[7] = second compound 0.0949 µM, first compound 0.0316 µM
[8] = second compound 0.0949 µM, first compound 0.1 µM
[9] = second compound 0.3 µM, first compound 0.00316 µM
[10] = second compound 0.3 µM, first compound 0.01 µM
[11] = second compound 0.3 µM, first compound 0.0316 µM
[12] = second compound 0.3 µM, first compound 0.1 µM
[13] = second compound 0.949 µM, first compound 0.00316 µM
[14] = second compound 0.949 µM, first compound 0.01 µM
[15] = second compound 0.949 µM, first compound 0.0316 µM
[16] = second compound 0.949 µM, first compound 0.1 µM
[17] = second compound 3 µM, first compound 0.00316 µM
[18] = second compound 3 µM, first compound 0.01 µM
[19] = second compound 3 µM, first compound 0.0316 µM
[20] = second compound 3 µM, first compound 0.1 µM
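Further: compound exposure lasted seven days after spheroids formed for three days.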

## CCN1CCN(Cc2ccc(Nc3ncc(F)c(-c4cc(F)c5nc(C)n(C(C)C)c5c4)n3)nc2)CC1 + CCN1C(C(=O)NC23CCC(C(=O)O)(CC2)CC3)C(c2cccc(Cl)c2F)C2(C(=O)Nc3cc(Cl)ccc32)C12CCCCC2
Second compound 0.03 µM
  pIC50: < 6.00
Second compound 0.0949 µM
  pIC50: < 6.00
Second compound 0.3 µM
  pIC50: < 6.00
Second compound 0.949 µM
  pIC50: < 6.00
Second compound 3 µM
  pIC50: < 6.00
[1]
  viability, T/C: 109%
[2]
  viability, T/C: 108%
[3]
  viability, T/C: 94.2%
[4]
  viability, T/C: 112%
Second compound 0.03 µM, first compound 0.316 µM
  viability, T/C: 105%
Second compound 0.03 µM, first compound 1 µM
  viability, T/C: 97.2%
[5]
  viability, T/C: 105%
[6]
  viability, T/C: 112%
[7]
  viability, T/C: 121%
[8]
  viability, T/C: 121%
Second compound 0.0949 µM, first compound 0.316 µM
  viability, T/C: 106%
Second compound 0.0949 µM, first compound 1 µM
  viability, T/C: 103%
[9]
  viability, T/C: 107%
[10]
  viability, T/C: 104%
[11]
  viability, T/C: 114%
[12]
  viability, T/C: 106%
Second compound 0.3 µM, first compound 0.316 µM
  viability, T/C: 112%
Second compound 0.3 µM, first compound 1 µM
  viability, T/C: 97.2%
[13]
  viability, T/C: 111%
[14]
  viability, T/C: 117%
[15]
  viability, T/C: 100%
[16]
  viability, T/C: 99.2%
Second compound 0.949 µM, first compound 0.316 µM
  viability, T/C: 97.1%
Second compound 0.949 µM, first compound 1 µM
  viability, T/C: 88.3%
[17]
  viability, T/C: 110%
[18]
  viability, T/C: 112%
[19]
  viability, T/C: 89.1%
[20]
  viability, T/C: 114%
Second compound 3 µM, first compound 0.316 µM
  viability, T/C: 100%
Second compound 3 µM, first compound 1 µM
  viability, T/C: 85%

## NC(=O)C(=Cn1cnc(-c2cc(C(F)(F)F)cc(C(F)(F)F)c2)n1)c1cncnc1 + CCN1C(C(=O)NC23CCC(C(=O)O)(CC2)CC3)C(c2cccc(Cl)c2F)C2(C(=O)Nc3cc(Cl)ccc32)C12CCCCC2
Second compound 0.03 µM
  pIC50: 7.14
Second compound 0.0949 µM
  pIC50: 7.28
Second compound 0.3 µM
  pIC50: 7.16
Second compound 0.949 µM
  pIC50: 7.13
Second compound 3 µM
  pIC50: 7.10
Second compound 0.03 µM, first compound 0.000949 µM
  viability, T/C: 97%
Second compound 0.03 µM, first compound 0.003 µM
  viability, T/C: 107%
Second compound 0.03 µM, first compound 0.00949 µM
  viability, T/C: 84.9%
Second compound 0.03 µM, first compound 0.03 µM
  viability, T/C: 78.3%
Second compound 0.03 µM, first compound 0.0949 µM
  viability, T/C: 41%
Second compound 0.03 µM, first compound 0.3 µM
  viability, T/C: 17.4%
Second compound 0.0949 µM, first compound 0.000949 µM
  viability, T/C: 96.6%
Second compound 0.0949 µM, first compound 0.003 µM
  viability, T/C: 96.4%
Second compound 0.0949 µM, first compound 0.00949 µM
  viability, T/C: 81.6%
Second compound 0.0949 µM, first compound 0.03 µM
  viability, T/C: 64.4%
Second compound 0.0949 µM, first compound 0.0949 µM
  viability, T/C: 35.5%
Second compound 0.0949 µM, first compound 0.3 µM
  viability, T/C: 16.8%
Second compound 0.3 µM, first compound 0.000949 µM
  viability, T/C: 96.6%
Second compound 0.3 µM, first compound 0.003 µM
  viability, T/C: 88%
Second compound 0.3 µM, first compound 0.00949 µM
  viability, T/C: 97.6%
Second compound 0.3 µM, first compound 0.03 µM
  viability, T/C: 74.8%
Second compound 0.3 µM, first compound 0.0949 µM
  viability, T/C: 40.4%
Second compound 0.3 µM, first compound 0.3 µM
  viability, T/C: 17.5%
Second compound 0.949 µM, first compound 0.000949 µM
  viability, T/C: 98.2%
Second compound 0.949 µM, first compound 0.003 µM
  viability, T/C: 89.3%
Second compound 0.949 µM, first compound 0.00949 µM
  viability, T/C: 80.6%
Second compound 0.949 µM, first compound 0.03 µM
  viability, T/C: 70.8%
Second compound 0.949 µM, first compound 0.0949 µM
  viability, T/C: 43.4%
Second compound 0.949 µM, first compound 0.3 µM
  viability, T/C: 19.1%
Second compound 3 µM, first compound 0.000949 µM
  viability, T/C: 102%
Second compound 3 µM, first compound 0.003 µM
  viability, T/C: 103%
Second compound 3 µM, first compound 0.00949 µM
  viability, T/C: 95.6%
Second compound 3 µM, first compound 0.03 µM
  viability, T/C: 81%
Second compound 3 µM, first compound 0.0949 µM
  viability, T/C: 44%
Second compound 3 µM, first compound 0.3 µM
  viability, T/C: 13.6%

## NC1CCC(NC2CC2c2ccccc2)CC1 (stereo not given) + CCN1C(C(=O)NC23CCC(C(=O)O)(CC2)CC3)C(c2cccc(Cl)c2F)C2(C(=O)Nc3cc(Cl)ccc32)C12CCCCC2
Second compound 0.03 µM
  pIC50: < 7.00
Second compound 0.0949 µM
  pIC50: < 7.00
Second compound 0.3 µM
  pIC50: < 7.00
Second compound 0.949 µM
  pIC50: < 7.00
Second compound 3 µM
  pIC50: < 7.00
Second compound 0.03 µM, first compound 0.000316 µM
  viability, T/C: 95.8%
Second compound 0.03 µM, first compound 0.001 µM
  viability, T/C: 95.3%
[1]
  viability, T/C: 89.8%
[2]
  viability, T/C: 85.2%
[3]
  viability, T/C: 112%
[4]
  viability, T/C: 97.9%
Second compound 0.0949 µM, first compound 0.000316 µM
  viability, T/C: 99.7%
Second compound 0.0949 µM, first compound 0.001 µM
  viability, T/C: 93.4%
[5]
  viability, T/C: 99%
[6]
  viability, T/C: 104%
[7]
  viability, T/C: 92.5%
[8]
  viability, T/C: 95%
Second compound 0.3 µM, first compound 0.000316 µM
  viability, T/C: 96.6%
Second compound 0.3 µM, first compound 0.001 µM
  viability, T/C: 91.3%
[9]
  viability, T/C: 94.7%
[10]
  viability, T/C: 88.7%
[11]
  viability, T/C: 96.5%
[12]
  viability, T/C: 82.2%
Second compound 0.949 µM, first compound 0.000316 µM
  viability, T/C: 91%
Second compound 0.949 µM, first compound 0.001 µM
  viability, T/C: 91.5%
[13]
  viability, T/C: 85.7%
[14]
  viability, T/C: 87.5%
[15]
  viability, T/C: 90.9%
[16]
  viability, T/C: 92.1%
Second compound 3 µM, first compound 0.000316 µM
  viability, T/C: 98.3%
Second compound 3 µM, first compound 0.001 µM
  viability, T/C: 98%
[17]
  viability, T/C: 93.7%
[18]
  viability, T/C: 91%
[19]
  viability, T/C: 83.6%
[20]
  viability, T/C: 96.6%

Source: PubChem BioAssay AID1963420 (Molecular Pharmacology Branch, DTP, NCI, 2024)
